Measured values published in ChEMBL document CHEMBL5620384, “6-Regioisomeric 5,8-quinolinediones as potent CDC25 inhibitors against colorectal cancers” (Eur J Med Chem, 2023).
Calls of active or inactive are those of the source. The rule behind the calls is not given here.

Columns and labels:
[1] = tested on: SW480; assay: Cytotoxicity against human SW480 cells assessed as cell survival measured at 2 uM after 72 hrs by MTS assay relative to control; type: functional; conditions: read-out: Activity
[2] = tested on: U-87 MG; assay: Cytotoxicity against human U-87 MG cells assessed as cell survival measured at 2 uM after 72 hrs by MTS assay relative to control; type: functional, U-87MG ATCC; conditions: read-out: Activity
[3] = tested on: MCF7; assay: Cytotoxicity against human MCF7 cells assessed as cell survival measured at 2 uM after 72 hrs by MTS assay relative to control; type: functional; conditions: read-out: Activity
[4] = tested on: HCT-116; assay: Cytotoxicity against human HCT-116 cells assessed as cell survival measured at 2 uM after 72 hrs by MTS assay relative to control; type: functional; conditions: read-out: Activity
[5] = tested on: DLD-1; assay: Cytotoxicity against human DLD-1 cells assessed as cell survival measured at 2 uM after 72 hrs by MTS assay relative to control; type: functional; conditions: read-out: Activity
[6] = tested on: MDA-MB-231; assay: Cytotoxicity against human MDA-MB-231 cells assessed as cell survival measured at 2 uM after 72 hrs by MTS assay relative to control; type: functional; conditions: read-out: Activity
[7] = tested on: MDA-MB-231; assay: Cytotoxicity against human MDA-MB-231 cells assessed as growth inhibition after 72 hrs by MTS assay; type: functional, cell-based; conditions: MDA-MB-231, 72 h
[8] = tested on: DLD-1; assay: Cytotoxicity against human DLD1 cells assessed as growth inhibition after 72 hrs by MTS assay; type: functional, cell-based; conditions: DLD-1, 72 h
[9] = tested on: HCT-116; assay: Effect on cell cycle progression in thymidine synchronized human HCT-116 cells assessed as increase in MPM2 phosphorylation in presence of 0.2 uM of colchicine at 2 uM by Western blot analysis; type: functional, cell-based
[10] = tested on: HCT-116; assay: Reduction in mitotic exit in human HCT-116 cells at 2 uM measured upto 24 hrs by flow cytometry; type: functional, cell-based
[11] = tested on: HCT-116; assay: Effect on cell cycle progression in thymidine synchronized human HCT-116 cells assessed as increase in cyclin B1 phosphorylation in presence of 0.2 uM of colchicine at 2 uM by Western blot analysis; type: functional, cell-based
[12] = tested on: HCT-116; assay: Effect on cell cycle progression in thymidine synchronized human HCT-116 cells assessed as prevention of cells entering from mitosis in presence of colchicine at 2 uM by Western blot analysis; type: functional, cell-based
[13] = tested on: HCT-116; assay: Induction of apoptosis in human HCT-116 cells assessed as reduction in number of cells at G2/M phase at 1 uM measured after 72 hrs by flow cytometry; type: functional, cell-based
[14] = tested on: DLD-1; assay: Induction of cell cycle arrest in human DLD-1 cells assessed as reduced progression of S phase (T8) at 2 uM measured upto 24 hrs by flow cytometry; type: functional, cell-based
[15] = tested on: HCT-116; assay: Induction of apoptosis in human HCT-116 cells assessed as reduction in number of cells at S phase at 1 uM measured after 72 hrs by flow cytometry; type: functional, cell-based
[16] = tested on: HCT-116; assay: Effect on cell cycle progression in thymidine synchronized human HCT-116 cells assessed as increase in histone H3 phosphorylation in presence of 0.2 uM of colchicine at 2 uM by Western blot analysis; type: functional, cell-based
[17] = tested on: DLD-1; assay: Induction of cell cycle arrest in human DLD-1 cells assessed as reduced progression of G2/M phase (T12) at 2 uM measured upto 24 hrs by flow cytometry; type: functional, cell-based
[18] = tested on: HCT-116; assay: Induction of apoptosis in human HCT-116 cells assessed as reduction in number of cells at G1 phase at 1 uM measured after 72 hrs by flow cytometry; type: functional, cell-based
[19] = tested on: HCT-116; assay: Induction of apoptosis in human HCT-116 cells assessed as increase in caspase 3 at 1 uM measured after 72 hrs by flow cytometry; type: functional, cell-based
[20] = tested on: HCT-116; assay: Induction of DNA damaging in human HCT-116 cells assessed as CDK1Y15 dephosphorylation at 2 uM measured upto 8 hrs by Western blot analysis; type: functional, cell-based
[21] = tested on: HCT-116; assay: Induction of DNA damaging in human HCT-116 cells assessed as KAP-1 phosphorylation at S824 at 2 uM measured upto 8 hrs by Western blot analysis; type: functional, cell-based
[22] = tested on: HCT-116; assay: Induction of apoptosis in human HCT-116 cells assessed as increase in caspase 8 at 1 uM measured after 72 hrs by flow cytometry; type: functional, cell-based
[23] = Cytotoxicity against human CCD-841CoN cells assessed as growth inhibition after 72 hrs by MTS assay; type: toxicity, cell-based
[24] = tested on: HCT-116; assay: Induction of apoptosis in human HCT-116 cells assessed as decrease in MCL1 expression at 1 uM measured after 72 hrs by flow cytometry; type: functional, cell-based
[25] = Cytotoxicity against human M10 cells assessed as growth inhibition after 72 hrs by MTS assay; type: toxicity, cell-based
[26] = Cytotoxicity against human MRC5 cells assessed as growth inhibition after 72 hrs by MTS assay; type: toxicity, cell-based
[27] = tested on: HCT-116; assay: Induction of DNA damaging in human HCT-116 cells assessed as CHK2 phosphorylation at T68 at 2 uM measured upto 8 hrs by Western blot analysis; type: functional, cell-based
[28] = tested on: HCT-116; assay: Induction of DNA damaging in human HCT-116 cells assessed as H4K20 methylation at 2 uM measured upto 8 hrs by Western blot analysis; type: functional, cell-based
[29] = Cytotoxicity against human HEL 299 cells assessed as growth inhibition after 72 hrs by MTS assay; type: toxicity, cell-based
[30] = tested on: HCT-116; assay: Induction of DNA damaging in human HCT-116 cells assessed as RPA2 phosphorylation at S33 at 2 uM measured upto 8 hrs by Western blot analysis; type: functional, cell-based
[31] = tested on: HCT-116; assay: Induction of cell cycle arrest in human HCT-116 cells assessed as cells accumulation at G2/M phase (T10-T24) at 2 uM measured upto 24 hrs by flow cytometry; type: functional, cell-based
[32] = tested on: HCT-116; assay: Induction of DNA damaging in human HCT-116 cells assessed as RPA2 phosphorylation at S4/S8 at 2 uM measured upto 8 hrs by Western blot analysis; type: functional, cell-based
[33] = tested on: HCT-116; assay: Induction of apoptosis in human HCT-116 cells assessed as increase in number of cells at sub-G1 phase measured after 72 hrs by flow cytometry; type: functional, cell-based; conditions: dose 1-4 µM
[34] = tested on: HCT-116; assay: Induction of DNA damaging in human HCT-116 cells assessed as CHK1 phosphorylation at S345 at 2 uM measured upto 8 hrs by Western blot analysis; type: functional, cell-based
[35] = tested on: HCT-116; assay: Effect on cell cycle progression in thymidine synchronized human HCT-116 cells assessed as suppression of CDK1 dephosphorylation in presence of colchicine at 2 uM by Western blot analysis; type: functional, cell-based
[36] = tested on: HCT-116; assay: Suppression of histone H4 methylation at K20 (H4K20me1) in thymidine synchronized human HCT-116 cells at 2 uM measured upto 8 hrs by Western blot analysis; type: functional, cell-based
[37] = tested on: HCT-116; assay: Induction of apoptosis in human HCT-116 cells assessed as increase in caspase 9 at 1 uM measured after 72 hrs by flow cytometry; type: functional, cell-based
[38] = tested on: HCT-116; assay: Induction of cell cycle arrest in human HCT-116 cells assessed as cells accumulation at S to G2 phase (T6-T8) at 2 uM measured upto 24 hrs by flow cytometry; type: functional, cell-based

## O=C1C(Cl)=C(NCCN2CCOCC2)C(=O)c2ccccc21
[1]
  viability at 2 µM: 100%
[2]
  viability at 2 µM: 99%
[3]
  viability at 2 µM: 103%
[4]
  viability at 2 µM: 90.1%
[5]
  viability at 2 µM: 97.6%
[6]
  viability at 2 µM: 89.8%

## O=C1C(NCCCCN2CCOCC2)=C(Cl)C(=O)c2ncccc21
[2]
  viability at 2 µM: 105%
[3]
  viability at 2 µM: 92.8%
[4]
  viability at 2 µM: 4.18%
[7]
  IC50: 680 nM
[8]
  IC50: 1700 nM
[5]
  viability at 2 µM: 42.2%
[6]
  viability at 2 µM: 81.8%

## O=C1C(NCCCN2CCOCC2)=C(Cl)C(=O)c2ncccc21
[1]
  viability at 2 µM: 51.6%
[2]
  viability at 2 µM: 51.6%
[3]
  viability at 2 µM: 70.8%
[4]
  viability at 2 µM: 2.43%
[7]
  IC50: 1140 nM
[8]
  IC50: 1940 nM
[5]
  viability at 2 µM: 34.1%
[6]
  viability at 2 µM: 90.4%

## O=C1C(Cl)=C(NCCN2CCOCC2)C(=O)c2ccc(Br)cc21
[1]
  viability at 2 µM: 105%
[2]
  viability at 2 µM: 91.6%
[3]
  viability at 2 µM: 100%
[4]
  viability at 2 µM: 89.3%
[5]
  viability at 2 µM: 75.6%
[6]
  viability at 2 µM: 85.4%

## O=C1C(Cl)=C(NCCN2CCOCC2)C(=O)c2cc(Br)ccc21
[1]
  viability at 2 µM: 99.7%
[2]
  viability at 2 µM: 86.8%
[3]
  viability at 2 µM: 105%
[4]
  viability at 2 µM: 86.8%
[5]
  viability at 2 µM: 10.3%
[6]
  viability at 2 µM: 80.3%

## O=C1C(NCCN2CCOCC2)=C(Cl)C(=O)c2c1cccc2[N+](=O)[O-]
[1]
  viability at 2 µM: 89.3%
[2]
  viability at 2 µM: 84.6%
[3]
  viability at 2 µM: 88.9%
[4]
  viability at 2 µM: 86.3%
[5]
  viability at 2 µM: 59.9%
[6]
  viability at 2 µM: 99.3%

## O=C1C(Cl)=C(NCCN2CCOCC2)C(=O)c2ccc(I)cc21
[1]
  viability at 2 µM: 111%
[2]
  viability at 2 µM: 104%
[3]
  viability at 2 µM: 104%
[4]
  viability at 2 µM: 94.4%
[5]
  viability at 2 µM: 82.1%
[6]
  viability at 2 µM: 91%

## O=C1C(Cl)=C(NCCN2CCOCC2)C(=O)c2cc(I)ccc21
[1]
  viability at 2 µM: 84.3%
[2]
  viability at 2 µM: 59.3%
[3]
  viability at 2 µM: 102%
[4]
  viability at 2 µM: 82.4%
[5]
  viability at 2 µM: 1.7%
[6]
  viability at 2 µM: 81.1%

## O=C1C(Cl)=C(NCCN2CCOCC2)C(=O)c2ncccc21
[9]
  Activity: Active
[10]
  Activity: Active
[1]
  viability at 2 µM: 93.9%
[11]
  Activity: Active
[2]
  viability at 2 µM: 82%
[12]
  Activity: Active
[3]
  viability at 2 µM: 79.6%
[13]
  Activity: inactive
[14]
  Activity: Active
[4]
  viability at 2 µM: 61.8%
[7]
  IC50: > 2000 nM
[8]
  IC50: > 2000 nM
[5]
  viability at 2 µM: 82%
[6]
  viability at 2 µM: 94.4%
[15]
  Activity: inactive
[16]
  Activity: Active
[17]
  Activity: Active
[18]
  Activity: inactive

## Nc1ccc2c(c1)C(=O)C(Cl)=C(NCCN1CCOCC1)C2=O
[2]
  viability at 2 µM: 104%
[3]
  viability at 2 µM: 81.4%
[4]
  viability at 2 µM: 88.7%
[5]
  viability at 2 µM: 90.8%
[6]
  viability at 2 µM: 99.7%

## O=C1C(NCCN2CCOCC2)=C(Cl)C(=O)c2ncccc21
[19]
  Activity: Active
[20]
  Activity: Active
[21]
  Activity: Active
[22]
  Activity: Active
[23]
  IC50 at 72 h: > 2000 nM
[1]
  viability at 2 µM: 16.7%
[24]
  Activity: Active
[25]
  IC50 at 72 h: > 2000 nM
[26]
  IC50 at 72 h: > 2000 nM
[27]
  Activity: Active
[28]
  Activity: Active
[2]
  viability at 2 µM: 28%
[12]
  Activity: Active
[29]
  IC50 at 72 h: > 2000 nM
[3]
  viability at 2 µM: 36.3%
[13]
  Activity: Active
[14]
  Activity: Active
[4]
  viability at 2 µM: 0.85%
[7]
  IC50: 440 nM
[8]
  IC50: 590 nM
[30]
  Activity: Active
[5]
  viability at 2 µM: 1.86%
[31]
  Activity: Active
[32]
  Activity: Active
[33]
  Activity: Dose-Dependent Effect
[34]
  Activity: Active
[35]
  Activity: Active
[6]
  viability at 2 µM: 93.2%
[15]
  Activity: Active
[36]
  Activity: Active
[37]
  Activity: Active
[18]
  Activity: Active
[38]
  Activity: Active
